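The compound was tested at five concentrations on cells cultured in 96-well plates, with a 48-hour exposure period. The concentration for full growth arrest is given as TGI.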
Tests used:
Test in all cases: growth of human tumour cells (NCI), 48 h
PC-3 prostate = system: PC-3 prostate
SW-620 colon = system: SW-620 colon
KM12 colon = system: KM12 colon
EKVX NSCLC = system: EKVX NSCLC
RPMI-8226 leukemia = system: RPMI-8226 leukemia
HS 578T breast = system: HS 578T breast
U251 CNS = system: U251 CNS
A498 renal = system: A498 renal
SNB-19 CNS = system: SNB-19 CNS
NCI-H522 lung = system: NCI-H522 lung
UACC-62 melanoma = system: UACC-62 melanoma
MDA-MB-231 breast = system: MDA-MB-231 breast
SK-MEL-5 melanoma = system: SK-MEL-5 melanoma
SNB-75 CNS = system: SNB-75 CNS
HCT-15 colon = system: HCT-15 colon
CCRF-CEM leukemia = system: CCRF-CEM leukemia
SN12C renal = system: SN12C renal
LOX IMVI melanoma = system: LOX IMVI melanoma
SR leukemia = system: SR leukemia
CAKI-1 renal = system: CAKI-1 renal
MOLT-4 leukemia = system: MOLT-4 leukemia
UO-31 renal = system: UO-31 renal
HT29 colon = system: HT29 colon
SF-295 CNS = system: SF-295 CNS
OVCAR-4 ovarian = system: OVCAR-4 ovarian
COLO 205 colon = system: COLO 205 colon
UACC-257 melanoma = system: UACC-257 melanoma
OVCAR-8 ovarian = system: OVCAR-8 ovarian
786-0 renal = system: 786-0 renal
SF-539 CNS = system: SF-539 CNS
BT-549 breast = system: BT-549 breast
HL-60(TB) leukemia = system: HL-60(TB) leukemia
MCF7 breast = system: MCF7 breast
M14 melanoma = system: M14 melanoma
HOP-92 NSCLC = system: HOP-92 NSCLC
HCT-116 colon = system: HCT-116 colon
A549 NSCLC = system: A549 NSCLC
NCI-H23 lung = system: NCI-H23 lung
NCI/ADR-RES ovarian = system: NCI/ADR-RES ovarian
RXF 393 renal = system: RXF 393 renal
OVCAR-3 ovarian = system: OVCAR-3 ovarian
ACHN renal = system: ACHN renal
HOP-62 NSCLC = system: HOP-62 NSCLC
HCC-2998 colon = system: HCC-2998 colon
SF-268 CNS = system: SF-268 CNS
SK-OV-3 ovarian = system: SK-OV-3 ovarian
MDA-N = system: MDA-N
TK-10 renal = system: TK-10 renal
OVCAR-5 ovarian = system: OVCAR-5 ovarian
SK-MEL-2 melanoma = system: SK-MEL-2 melanoma
T-47D breast = system: T-47D breast
MDA-MB-435 = system: MDA-MB-435
SK-MEL-28 melanoma = system: SK-MEL-28 melanoma
IGROV1 ovarian = system: IGROV1 ovarian
MALME-3M melanoma = system: MALME-3M melanoma
K-562 leukemia = system: K-562 leukemia
NCI-H460 lung = system: NCI-H460 lung
NCI-H226 lung = system: NCI-H226 lung
DU-145 prostate = system: DU-145 prostate

`CC1=NN=C(C)C1N=Nc1ccc2nc(C)[nH]c2c1` gave a TGI (PC-3 prostate) of over 100 µM, a TGI (SW-620 colon) of over 100 µM and a TGI (KM12 colon) of over 100 µM. For the same compound, the TGI (EKVX NSCLC) was over 71.3 µM, the TGI (RPMI-8226 leukemia) was over 100 µM and the TGI (HS 578T breast) was 29.4 µM. The TGI (U251 CNS) was over 100 µM, the TGI (A498 renal) was 38.2 µM and the TGI (SNB-19 CNS) was over 100 µM. For the same compound, the TGI (NCI-H522 lung) was over 100 µM, the TGI (UACC-62 melanoma) was over 79.8 µM and the TGI (MDA-MB-231 breast) was over 88.2 µM. For the same compound, the TGI (SK-MEL-5 melanoma) was over 63.8 µM, the TGI (SNB-75 CNS) was 64.4 µM and the TGI (HCT-15 colon) was over 100 µM. For the same compound, the TGI (CCRF-CEM leukemia) was over 100 µM, the TGI (SN12C renal) was over 100 µM and the TGI (LOX IMVI melanoma) was over 63.9 µM. For the same compound, the TGI (SR leukemia) was 48.3 µM, the TGI (CAKI-1 renal) was over 44.7 µM and the TGI (MOLT-4 leukemia) was over 85.9 µM. For the same compound, the TGI (UO-31 renal) was 77.5 µM, the TGI (HT29 colon) was over 100 µM and the TGI (SF-295 CNS) was over 75.1 µM. For the same compound, the TGI (OVCAR-4 ovarian) was over 100 µM, the TGI (COLO 205 colon) was over 100 µM and the TGI (UACC-257 melanoma) was over 100 µM. It also gave a TGI (OVCAR-8 ovarian) of over 100 µM, a TGI (786-0 renal) of over 100 µM and a TGI (SF-539 CNS) of over 88.6 µM. The TGI (BT-549 breast) was over 100 µM, the TGI (HL-60(TB) leukemia) was over 100 µM and the TGI (MCF7 breast) was over 100 µM. The TGI (M14 melanoma) was over 100 µM, the TGI (HOP-92 NSCLC) was 65.4 µM and the TGI (HCT-116 colon) was over 72.5 µM. For the same compound, the TGI (A549 NSCLC) was over 100 µM, the TGI (NCI-H23 lung) was over 100 µM and the TGI (NCI/ADR-RES ovarian) was over 100 µM. The TGI (RXF 393 renal) was 55.5 µM, the TGI (OVCAR-3 ovarian) was over 73.6 µM and the TGI (ACHN renal) was over 76.8 µM. It also gave a TGI (HOP-62 NSCLC) of over 100 µM, a TGI (HCC-2998 colon) of over 100 µM and a TGI (SF-268 CNS) of over 83.1 µM. The TGI (SK-OV-3 ovarian) was 24.2 µM, the TGI (MDA-N) was over 100 µM and the TGI (TK-10 renal) was over 100 µM. It also gave a TGI (OVCAR-5 ovarian) of over 100 µM, a TGI (SK-MEL-2 melanoma) of 36.3 µM and a TGI (T-47D breast) of 54.8 µM. It also gave a TGI (MDA-MB-435) of over 100 µM, a TGI (SK-MEL-28 melanoma) of over 100 µM and a TGI (IGROV1 ovarian) of 29.7 µM. The TGI (MALME-3M melanoma) was over 50.5 µM, the TGI (K-562 leukemia) was over 100 µM and the TGI (NCI-H460 lung) was over 100 µM. The TGI (NCI-H226 lung) was 34.8 µM and the TGI (DU-145 prostate) was over 100 µM.
